As a reminder, the IC50 is the concentration that gives 50% inhibition.

IC50 data for nine molecules are collected here from US9695175B2, “Highly selective c-Met inhibitors as anticancer agents” (Crown Bioscience Inc. (Taiwan), priority 2012, dated 2017).

For assay [1], the target named is c-Met kinase (1038-1346AA) (Homo sapiens (Human), UniProt P08581). The assay is described as follows: c-Met in vitro kinase assay (Lance Ultra ULight-TK). As to conditions: c-Met kinase 12.5 nM, ATP 2.5 uM, 30° C.; read-out: c-Met Enzyme IC50. Type of assay: biochemical. How it is done: c-Met In Vitro Kinase Assay [Method] Use Lance@Ultra Ulight™-TK test kits from PerKinElmer to evaluate the inhibition of c-Met kinase by the compounds [Instrument] ENVISION plate reader of PerKinElmer […] Then ATP (final concentration 2.5 uM) and kinase substrate (final concentration 50 nM) are added. […] After 1 hr, the plate is read at 615 nm and 665 nm. The ratio of […] at 665 nm and 615 nm is calculated and used for the data analysis as follows. This assay has a Minimum Significant Ratio (MSA) of 2-3. [Samples] All exampled compounds and Crizotinib as the positive control [Data Analysis] Background—the ratio of 665 nm/615 nm (no enzyme):0.003285 • Max—the ratio of 665 nm/615 nm (no test compound):0.075356 [formula] [Software] Use CBIS data analysis software to calculate IC50 values
Sequence of c-Met kinase (1038-1346AA) (P08581 1038-1346): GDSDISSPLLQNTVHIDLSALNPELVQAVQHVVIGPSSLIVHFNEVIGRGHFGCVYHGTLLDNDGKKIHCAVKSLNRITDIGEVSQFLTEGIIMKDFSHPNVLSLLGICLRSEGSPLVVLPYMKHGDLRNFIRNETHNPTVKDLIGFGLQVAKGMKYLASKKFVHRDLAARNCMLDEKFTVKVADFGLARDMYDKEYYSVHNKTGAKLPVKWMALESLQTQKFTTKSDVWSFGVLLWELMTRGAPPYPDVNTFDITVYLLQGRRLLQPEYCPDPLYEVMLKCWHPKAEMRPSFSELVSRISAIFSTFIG

The target in assay [2] is c-Met protein in S114 cells (Homo sapiens (Human), UniProt P08581). In words: S114 cell-based ELISA, phosphorylation of c-Met protein. As to conditions: 30 min compound incubation, phospho-c-Met ELISA. The procedure:
Cell-Based ELISA [Method] Use ELISA to measure the phosphorylation of c-Met protein in […] cells [Instrument] ENVISION plate reader of PerKinElmer […] [Procedure] […] cells are cultured in DMEM medium (containing 10% FBS). When cells reach 80% confluency, they are collected by trypsinization and centrifugation at 800 rpm for 5 min. The cells are re-suspended in DMEM and adjusted to a density of 500,000 cells/mL. A 96-well plate is pretreated with a solution of Firbronectin in PBS (5 μg/mL) at 100 μL per well for 2 hr. The cell suspension is split into the 96-well culture plate at 100 uL per well and incubated (37° C., 5% CO2) overnight. The capture antibody is diluted with 1/2 Tris-ammonium bicarbonate buffer (1:1000) and transferred into a 96-well absorption plate (70 μL per well) at 4° C. overnight. The solution is discarded and the plate is washed with blocking buffer, followed by adding blocking buffer (150 μL per well), and kept at room temperature for 1 hr. The medium in the 96-well culture plate is discarded and the plate is washed with DMEM (without FBS). Then 80 μL of DMEM (without FBS) and 20 μL of test compound solution at various concentrations in DMEM (without FBS) are added. The culture plate is kept in a culture incubator for 30 min (37° C., 5% CO2). The cell culture medium is discarded and the culture plate is washed with PBS, followed by adding lysis buffer (50 μL per well) and incubated at 4° C. for 20 min. The solution in the absorption plate is discarded and the plate is washed with binding buffer. To each well of the absorption plate is added binding buffer (50 μL) and lysate (40 μL) from the above culture plate; then the plate is incubated at room temperature for 2 hours. The culture medium is discarded and the plate is washed twice with binding buffer, followed by adding a solution of 1st antibody (diluted with binding buffer 1:1000, 100 μL per well) and incubated at 37° C. for 1 hr. The solution is discarded and the plate is washed twice with binding buffer. Then a solution of 2nd antibody is added (100 μL per well) and incubated at 37° C. for another hour. The medium is discarded and the plate is washed twice with binding buffer and once with PBS. To each well, 100 μL of A.B.T.S solution is added and incubated at 37° C. for 30 min. Then OD405 is analyzed on an ENVISION plate reader. This assay has a Minimum Significant Ratio (MSA) of 2-3. [Samples] All exemplified compounds and Crizotinib as the positive control [Data Analysis] Background (no cell lysate): 0.084 • Max (no test compound): 0.517 [formula] [Software] Use CBIS data analysis software to calculate IC50 values
On the technique in general: An ELISA detects its analyte on a solid surface through an enzyme-linked reagent.

Sequence of c-Met protein in S114 cells (P08581 25-1390): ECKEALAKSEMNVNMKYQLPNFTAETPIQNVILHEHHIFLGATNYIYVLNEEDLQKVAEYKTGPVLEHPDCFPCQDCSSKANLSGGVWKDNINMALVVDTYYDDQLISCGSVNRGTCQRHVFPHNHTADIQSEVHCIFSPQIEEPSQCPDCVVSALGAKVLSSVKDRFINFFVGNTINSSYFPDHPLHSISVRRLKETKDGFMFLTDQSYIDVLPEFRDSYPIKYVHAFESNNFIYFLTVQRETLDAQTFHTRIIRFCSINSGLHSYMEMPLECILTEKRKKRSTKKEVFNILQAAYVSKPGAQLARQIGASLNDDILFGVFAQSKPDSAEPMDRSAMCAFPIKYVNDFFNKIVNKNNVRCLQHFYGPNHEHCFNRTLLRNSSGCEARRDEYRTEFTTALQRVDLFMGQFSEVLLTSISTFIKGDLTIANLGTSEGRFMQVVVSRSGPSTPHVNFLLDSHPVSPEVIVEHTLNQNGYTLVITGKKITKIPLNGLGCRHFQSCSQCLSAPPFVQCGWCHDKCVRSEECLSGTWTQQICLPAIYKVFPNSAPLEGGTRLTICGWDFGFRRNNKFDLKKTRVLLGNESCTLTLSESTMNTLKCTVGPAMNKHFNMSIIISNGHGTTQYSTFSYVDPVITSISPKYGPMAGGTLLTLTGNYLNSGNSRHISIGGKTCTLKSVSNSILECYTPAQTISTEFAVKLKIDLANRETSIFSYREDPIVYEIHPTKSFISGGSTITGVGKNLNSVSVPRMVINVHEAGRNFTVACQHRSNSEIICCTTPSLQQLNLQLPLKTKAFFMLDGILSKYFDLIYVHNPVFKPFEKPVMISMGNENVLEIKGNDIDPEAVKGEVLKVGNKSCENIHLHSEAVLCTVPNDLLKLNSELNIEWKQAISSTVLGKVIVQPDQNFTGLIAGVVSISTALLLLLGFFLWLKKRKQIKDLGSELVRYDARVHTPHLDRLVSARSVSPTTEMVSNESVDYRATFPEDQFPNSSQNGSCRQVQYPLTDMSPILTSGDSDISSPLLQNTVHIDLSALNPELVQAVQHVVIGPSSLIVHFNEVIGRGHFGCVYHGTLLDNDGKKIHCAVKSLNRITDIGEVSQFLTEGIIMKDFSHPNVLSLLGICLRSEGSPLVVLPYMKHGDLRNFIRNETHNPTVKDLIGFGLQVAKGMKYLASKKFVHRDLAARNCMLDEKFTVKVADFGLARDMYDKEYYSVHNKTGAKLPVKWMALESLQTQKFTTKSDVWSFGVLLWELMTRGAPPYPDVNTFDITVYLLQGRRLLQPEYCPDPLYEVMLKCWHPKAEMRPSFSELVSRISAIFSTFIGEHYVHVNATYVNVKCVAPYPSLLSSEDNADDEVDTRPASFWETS

As for `Cn1cc2c(F)c(C(F)(F)c3nnc4ccc(-c5ccc(C(=O)NC6CC6)c(F)c5)nn34)ccc2n1` [Example 5], the half-inhibitory concentration (IC50) in assay [1] turned out to be 45.4 nM; in assay [2] it was 23.2 nM.
`Cn1cc2cc(C(F)(F)c3nnc4ccc(-c5ccc(C#N)nc5)nn34)c(F)cc2n1` [Example 35]: the IC50 is 65 nM in assay [1] and 88.1 nM in assay [2].
The like results for `Cn1cc2cc(C(F)(F)c3nnc4ccc(-c5ccc(C(=O)NC6CC6)c(F)c5)nn34)c(F)cc2n1` [Example 24] were, in that order, 43.4 nM and 14.9 nM.
The like results for `CNC(=O)c1c(F)cc(-c2ccc3nnc(C(F)(F)c4ccc5nn(C)cc5c4F)n3n2)cc1F` [Example 6] were, in that order, 36.5 nM and 9.5 nM.
On the same counts, the results for `CCNC(=O)c1ccc(-c2ccc3nnc(C(F)(F)c4cc5cn(C)nc5cc4F)n3n2)cc1F` [Example 22] are 20.7 nM and 15.5 nM.
In the case of `CNC(=O)c1ccc(-c2ccc3nnc(C(F)(F)c4cc5cn(C)nc5cc4F)n3n2)cc1F` [Example 19], the IC50 in assay [1] was 25.6 nM; in assay [2], 5.7 nM.
Take `CC(C)n1cc(-c2ccc3nnc(C(F)(F)c4ccc5nn(C)cc5c4F)n3n2)cn1` [Example 14]: the figures for the concentration for half-maximal inhibition (IC50) in assay [1] and in assay [2] were 102 nM and 22.5 nM, respectively.
The like results for `Nc1nc2cc(F)c(Cc3nnc4ccc(-c5cnn(C6CC6)c5)nn34)cc2s1` [Example 49] were, in that order, 38 nM and 65 nM.
The like results for `Cn1cc2c(F)c(C(F)(F)c3nnc4ccc(-c5ccc(NC(=O)C6CC6)c(F)c5)nn34)ccc2n1` [Example 7] were, in that order, 76.4 nM and 49.6 nM.
